Results as given in PMC11859264, “Discovery of a Novel Multitarget Analgesic Through an In Vivo-Guided Approach” (Pharmaceuticals, 2025).

The compounds below were run on formalin model (assay: Formalin test in mice (primary in vivo screening and ED50)). Details: Mus musculus, ip; mice, intraperitoneal, doses 0.1, 1, 5 and 10 mg/kg, second phase; read-out: ED50 in the second phase of the formalin model.
Parameters: species or system ICR male mice
Experimental: For primary screening, the synthesized compounds were administered to mice via intraperitoneal injection at a dose of 5 mg/kg using the formalin model. The percentage inhibition in the second phase, relative to the vehicle control (DMSO/cremophor EL/distilled water = 10:10:80), was calculated.
Each compound was assessed using four doses (0.1, 1, 5, and 10 mg/kg) by intraperitoneal injection.
ICR male mice weighing 23–25 g was purchased from Samtako Korea (Osan, Republic of Korea). ICR mice were housed four per cage in a room with 12 h light–dark cycles. The temperature and relative humidity of the room were maintained at 22 ± 2 °C and 50 ± 5%, respectively. Food and water were available ad libitum. The procedures for animal testing were approved by Medifron Animal Care and Use Committees (Approval number; Medifron 2019-9). Efforts were made to minimize animal suffering and to reduce the number of animals used.
Mice were randomly assigned to five groups (four per group) and single-dose drugs were administered by intraperitoneal injection. The formalin-induced licking paw test was modified from the method described by Dubuisson and Dennis. Each mouse was acclimated to an acrylic observation chamber for at least 30 min before the injection of formalin. Twenty microliters of 2% formalin were injected subcutaneously into the right side of the hind paw. Each mouse was then placed in an individual clear plastic observational chamber (15 × 15 × 15 cm, volume = […] or 3.375 L), and the pain response was recorded for a period of 30 min. The summation of time (in seconds) spent in licking and biting responses of the injected paw during each 5 min block was measured as an indicator of the pain response. The first period (early phase) was recorded 0–5 min after the injection of formalin, and the second period (late phase) was recorded 20–30 min after the injection. The test compound was administered intraperitoneally 30 min before the formalin injection at […]: 0.1, 1, 5, and 10 mg/kg. The vehicle was DMSO/Cremophor EL/distilled water (10/10/80). The data were expressed as the mean ± standard error of the mean (SEM). Statistical analysis was assessed by one-way analysis of variance (ANOVA) with Bonferroni’s post hoc test. Statistical significance was set at p-value < 0.05, with values of p <0.001 considered highly significant.
Work on `N#Cc1ccc2[nH]cc(C(=O)NCCN3CCN(c4cccc(Cl)c4)CC3)c2c1` [Compound 21, N-(2-(4-(3-Chlorophenyl)piperazin-1-yl)ethyl)-5-cyano-1H-indole-3-carboxamide] yielded an ED50 of 2.3 mg/kg.

Same assay, conditions: mice, 5 mg/kg intraperitoneal, second phase
In the case of `N#Cc1ccc2[nH]cc(C(=O)NCCN3CCC(n4c(=O)[nH]c5cc(Cl)ccc54)CC3)c2c1` [Compound 53, N-(2-(4-(5-Chloro-2-oxo-2,3-dihydro-1H-benzo[d]imidazol-1-yl)piperidin-1-yl)ethyl)-5-cyano-1H-indole-3-carboxamide], the “% Inhibition in the second phase of the formalin model relative to vehicle control” value was 14.3%. For `N#Cc1ccc2[nH]cc(C(=O)NCCN3CCN(c4ncccc4Cl)CC3)c2c1` [Compound 27, N-(2-(4-(3-Chloropyridin-2-yl)piperazin-1-yl)ethyl)-5-cyano-1H-indole-3-carboxamide], the “% Inhibition in the second phase of the formalin model relative to vehicle control” value was 48.0%. `N#Cc1ccc2[nH]cc(C(=O)NCCN3CCN(c4nsc5ccccc45)CC3)c2c1` [Compound 32, N-(2-(4-(Benzo[d]isothiazol-3-yl)piperazin-1-yl)ethyl)-5-cyano-1H-indole-3-carboxamide] was tested, and the “% Inhibition in the second phase of the formalin model relative to vehicle control” value was 14.3%. `N#Cc1ccc2[nH]cc(C(=O)NCCCN3CCN(C(=O)c4cccc(C(F)(F)F)c4)CC3)c2c1` [Compound 50, 5-Cyano-N-(3-(4-(3-(trifluoromethyl)benzoyl)piperazin-1-yl)propyl)-1H-indole-3-carboxamide] was tested, and the “% Inhibition in the second phase of the formalin model relative to vehicle control” value was 2.9%. In the case of `N#Cc1ccc2[nH]cc(C(=O)NCCN3CCN(c4ccc(Cl)cc4)CC3)c2c1` [Compound 24, N-(2-(4-(4-Chlorophenyl)piperazin-1-yl)ethyl)-5-cyano-1H-indole-3-carboxamide], the “% Inhibition in the second phase of the formalin model relative to vehicle control” value was 1.6%. `N#Cc1ccc2[nH]cc(C(=O)NCCN3CCN(c4ccc5oc(C(N)=O)cc5c4)CC3)c2c1` [Compound 30, N-(2-(4-(2-Carbamoylbenzofuran-5-yl)piperazin-1-yl)ethyl)-5-cyano-1H-indole-3-carboxamide] was tested, and the “% Inhibition in the second phase of the formalin model relative to vehicle control” value was 23.8%. In the case of `N#Cc1ccc2[nH]cc(C(=O)NCCN3CCN(c4ccc(C(F)(F)F)cc4)CC3)c2c1` [Compound 25, 5-Cyano-N-(2-(4-(4-(trifluoromethyl)phenyl)piperazin-1-yl)ethyl)-1H-indole-3-carboxamide], the “% Inhibition in the second phase of the formalin model relative to vehicle control” value was 19.8%. In the case of `N#Cc1ccc2[nH]cc(C(=O)NCCCN3CCN(C(=O)C4COc5ccccc5O4)CC3)c2c1` (stereo not shown) [Compound 51, 5-Cyano-N-(3-(4-(2,3-dihydrobenzo[b][1,4]dioxine-2-carbonyl)piperazin-1-yl)propyl)-1H-indole-3-carboxamide], the “% Inhibition in the second phase of the formalin model relative to vehicle control” value was 27.3%. For `N#Cc1ccc2[nH]cc(C(=O)NCCN3CCC(c4noc5cc(F)ccc45)CC3)c2c1` [Compound 52, 5-Cyano-N-(2-(4-(6-fluorobenzo[d]isoxazol-3-yl)piperidin-1-yl)ethyl)-1H-indole-3-carboxamide], the “% Inhibition in the second phase of the formalin model relative to vehicle control” value was 46.7%. In the case of `N#Cc1ccc2[nH]cc(C(=O)NCCN3CCN(c4cccc(F)c4)CC3)c2c1` [Compound 20, 5-Cyano-N-(2-(4-(3-fluorophenyl)piperazin-1-yl)ethyl)-1H-indole-3-carboxamide], the “% Inhibition in the second phase of the formalin model relative to vehicle control” value was 3.1%. In the case of `N#Cc1ccc2[nH]cc(C(=O)NCCCN3CCN(c4ccc(C(F)(F)F)cc4)CC3)c2c1` [Compound 41, 5-Cyano-N-(3-(4-(4-(trifluoromethyl)phenyl)piperazin-1-yl)propyl)-1H-indole-3-carboxamide], the “% Inhibition in the second phase of the formalin model relative to vehicle control” value was 16.5%. `N#Cc1ccc2[nH]cc(C(=O)NCCCN3CCN(C(=O)c4ccc(F)cc4)CC3)c2c1` [Compound 49, 5-Cyano-N-(3-(4-(4-fluorobenzoyl)piperazin-1-yl)propyl)-1H-indole-3-carboxamide] was tested, and the “% Inhibition in the second phase of the formalin model relative to vehicle control” value was 20.3%.
